Test results reported in patent US12215093B2, “Bicyclic carboxamides and methods of use thereof” (Tempest Therapeutics, Inc., priority 2018, dated 2025).

How the values were obtained:
EP4 = biological target: T1, EP4 (Homo sapiens, UniProt P35408); assay: Functional calcium flux assay, EP4; format: cell-based; conditions: stably transfected HEK293 cells; PGE2 10 nM; read-out: EP4 Ca2+-flux assay IC50
T1 construct: host or cells: stably transfected HEK293 cells co-expressing a promiscuous G protein and a clytin variant
T1 sequence (P35408 whole entry): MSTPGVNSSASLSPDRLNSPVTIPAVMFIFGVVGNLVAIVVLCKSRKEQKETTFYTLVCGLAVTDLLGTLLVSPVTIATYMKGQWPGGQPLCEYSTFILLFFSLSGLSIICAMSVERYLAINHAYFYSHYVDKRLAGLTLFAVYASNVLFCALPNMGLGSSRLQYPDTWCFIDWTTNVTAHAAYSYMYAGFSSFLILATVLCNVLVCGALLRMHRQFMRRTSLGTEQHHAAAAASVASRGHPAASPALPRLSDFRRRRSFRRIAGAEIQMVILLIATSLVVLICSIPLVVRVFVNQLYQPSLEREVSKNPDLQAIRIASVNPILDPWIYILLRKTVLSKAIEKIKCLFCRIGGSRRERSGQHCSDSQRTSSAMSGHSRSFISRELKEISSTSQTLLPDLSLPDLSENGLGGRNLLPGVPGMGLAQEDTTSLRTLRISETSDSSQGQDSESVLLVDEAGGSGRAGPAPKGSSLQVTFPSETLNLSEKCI
Description: (§1) Each receptor subtype has an additional promiscuous G protein added in order to couple the aforementioned receptor to the calcium signaling pathway. The parental cell line used also expresses a novel variant of clytin, a calcium-activated photo-protein, to enable sensitive luminescent detection. Briefly, cells were plated at 50,000 cells-per-well in black, clear bottom 96-well plates. The plated cells were allowed to sit at room temperature for 30 min prior to transferring to a humidified, 37° C., 5% CO2 incubator for 18 to 24 h. Assay buffer (HBSS with 20 mM HEPES) and loading buffer (assay buffer plus 10 μM coelenterazine) were prepared on the day of the assay. Assays were performed by aspirating media from the assay plate and washing once with assay buffer, then replacing with loading buffer and allowing the cells to incubate for 1.5 h at room temperature. Compounds were prepared in assay buffer at a 3× final concentration in non-binding plates. Compounds were added to the cell plates and incubated for 30 min at room temperature. The prostanoid receptor ligand PGE2 was prepared at a 4× dilution ratio for a final concentration of 10 nM. Plates were run on a Flexstation™ using a 100 ms integration luminescence protocol for a total of 60 sec with ligand addition at 15 sec. Data were obtained from relative light units as measured by area under the curve.

EP2 = EP2 (Homo sapiens, UniProt P43116);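 also: functional calcium flux assay in stably transfected HEK293 cells expressing EP2 coupled via a promiscuous G protein, clytin luminescence read as area under the curve, 30 min compound preincubation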
EP2, sequence (P43116 whole entry): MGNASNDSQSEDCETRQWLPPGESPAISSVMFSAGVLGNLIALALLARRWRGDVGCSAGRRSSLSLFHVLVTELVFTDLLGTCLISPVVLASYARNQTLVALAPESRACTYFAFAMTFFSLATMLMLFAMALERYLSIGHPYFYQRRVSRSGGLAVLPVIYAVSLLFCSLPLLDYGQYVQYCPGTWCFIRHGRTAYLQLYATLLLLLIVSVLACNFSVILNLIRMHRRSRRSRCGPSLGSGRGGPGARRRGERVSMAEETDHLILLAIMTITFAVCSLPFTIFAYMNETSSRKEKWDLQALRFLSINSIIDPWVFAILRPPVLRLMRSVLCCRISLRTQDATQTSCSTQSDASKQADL
Description: as §1

Row | IC50 (EP4) [nM] | IC50 (EP2) [nM] | Compound
1 | < 1 | 56 | O=C(NC1CC2(C1)CC(C(=O)O)C2)c1ccc(Cl)c2cnn(Cc3ccc(N4CC5CC5(C(F)F)C4)c(F)c3)c12 (racemic) [Example 76, (Sa)-6-(4-chloro-1-(4-((racemic)-1-(difluoromethyl)-3-azabicyclo[3.1.0]hexan-3-yl)-3-fluorobenzy1)-1H-indazole-7-carboxamido)spiro[3.3]heptane-2-carboxylic acid]
2 | < 1 | 71 | CC(c1ccc(N2C[C@H]3C[C@H]3C2)cc1)n1ncc2c(Cl)ccc(C(=O)NC3CC4(C3)CC(C(=O)O)C4)c21 (mixture of isomers) [Example 77, (Sa)-6-(1-((racemic)-1-(4-((1R,5S)-3-azabicyclo[3.1.0]hexan-3-yl)phenyl)ethyl)-4-chloro-1H-indazole-7-carboxamido)spiro[3.3]heptane-2-carboxylic acid]
3 | 1.3 | < 25 | COc1cccc(-c2ccc(C(C)n3ncc4cccc(C(=O)NC5CC6(C5)CC(C(=O)O)C6)c43)cc2)c1 (racemic) [Example 113, (Sa)-6-(1-((racemic)-1-(3′-methoxy-[1,1′-bipheny]-4-yl)-ethyl)-1H-indazole-7-carboxamido)spiro[3.3]heptane-2-carboxylic acid]
4 | 5.5 | 57 | COc1cc(C#N)cc(-c2ccc(C(C)n3ncc4cccc(C(=O)NC5CC6(C5)CC(C(=O)O)C6)c43)cc2)c1 (racemic) [Example 114, (Sa)-6-(1-((racemic)-1-(3′-cyano-5′-methoxy-[1,1′-biphenyl]-4-yl)-ethyl)-1H-indazole-7-carboxamido)spiro[3.3]heptane-2-carboxylic acid]
5 | 2.9 | 69 | CCOc1cc(-c2ccc(C(C)n3ncc4cccc(C(=O)NC5CC6(C5)CC(C(=O)O)C6)c43)cc2)ccn1 (racemic) [Example 115, (Sa)-6-(1-((racemic)-1-(4-(2-ethoxypyridin-4-yl)phenyl)-ethyl)-1H-indazole-7-carboxamido)spiro[3.3]heptane-2-carboxylic acid]
6 | 2.8 | < 25 | CC(c1ccc(-c2ccccc2)cc1)n1ccc2c(F)ccc(C(=O)NC3CC4(C3)CC(C(=O)O)C4)c21 (racemic) [Example 116, (S)-6-(1-(racemic)-1-([1,1′-biphenyl]-4-yl)-ethyl)-4-fluoro-1H-indole-7-carboxamido)spiro[3.3]heptane-2-carboxylic acid]
7 | 14 | 87 | COc1cccc(-c2ccc(C(C)n3ccc4c(F)ccc(C(=O)NC5CC6(C5)CC(C(=O)O)C6)c43)cc2)c1 (racemic) [Example 117, (Sa)-6-(4-fluoro-1-((racemic)-1-(3′-methoxy-[1,1′-biphenyl]-4-yl)-ethyl)-1H-indole-7-carboxamido)spiro[3.3]heptane-2-carboxylic acid]
8 | 2.6 | 31 | CCOc1cc(-c2ccc(C(C)n3ccc4c(F)ccc(C(=O)NC5CC6(C5)CC(C(=O)O)C6)c43)cc2)ccn1 (racemic) [Example 118, (Sa)-6-(1-((racemic)-1-(4-(2-ethoxypyridin-4-yl)phenyl)-ethyl)-4-fluoro-1H-indole-7-carboxamido)spiro[3.3]heptane-2-carboxylic acid]
9 | 3.8 | 59 | COc1ccc(-c2ccc(C(C)n3ccc4c(F)ccc(C(=O)NC5CC6(C5)CC(C(=O)O)C6)c43)cc2)cn1 (racemic) [Example 119, (Sa)-6-(4-fluoro-1-((racemic)-1-(4-(6-methoxypyridin-3-yl)phenyl)-ethyl)-1H-indole-7-carboxamido)spiro[3.3]heptane-2-carboxylic acid]
10 | 11 | < 25 | COc1ncc(-c2ccc(C(C)n3ccc4c(F)ccc(C(=O)NC5CC6(C5)CC(C(=O)O)C6)c43)cc2)cc1Cl (racemic) [Example 120, (Sa)-6-(1-((racemic)-1-(4-(5-chloro-6-methoxypyridin-3-yl)phenyl)-ethyl)-4-fluoro-1H-indole-7-carboxamido)spiro[3.3]heptane-2-carboxylic acid]
11 | 4.7 | < 25 | COc1cccc(-c2ccc(C(C)n3ncc4c(Cl)ccc(C(=O)NC5CC6(C5)CC(C(=O)O)C6)c43)cc2)c1 (racemic) [Example 122, (Sa)-6-(4-chloro-1-((racemic)-1-(3′-methoxy-[1,1′-biphenyl]-4-yl)-ethyl)-1H-indazole-7-carboxamido)spiro[3.3]heptane-2-carboxylic acid]
12 | 12 | 60 | COc1cc(C#N)cc(-c2ccc(C(C)n3ncc4c(Cl)ccc(C(=O)NC5CC6(C5)CC(C(=O)O)C6)c43)cc2)c1 (racemic) [Example 123, (Sa)-6-(4-chloro-1-((racemic)-1-(3′-cyano-5′-methoxy-[1,1′-biphenyl]-4-yl)-ethyl)-1H-indazole-7-carboxamido)spiro[3.3]heptane-2-carboxylic acid]
13 | 3.9 | < 25 | CCOc1cc(-c2ccc(C(C)n3ncc4c(Cl)ccc(C(=O)NC5CC6(C5)CC(C(=O)O)C6)c43)cc2)ccn1 (racemic) [Example 124, (Sa)-6-(4-chloro-1-((racemic)-1-(4-(2-ethoxypyridin-4-yl)phenyl)-ethyl)-1H-indazole-7-carboxamido)spiro[3.3]heptane-2-carboxylic acid]
14 | 1.3 | < 25 | CCOc1cccc(-c2ccc(C(C)n3ncc4c(Cl)ccc(C(=O)NC5CC6(C5)CC(C(=O)O)C6)c43)cc2)n1 (racemic) [Example 134, (Sa)-6-(4-chloro-1-((racemic)-1-(4-(6-ethoxypyridin-2-yl)phenyl)-ethyl)-1H-indazole-7-carboxamido)spiro[3.3]heptane-2-carboxylic acid]
15 | 7.2 | < 25 | CC(c1ccc(-c2ccccc2)cc1)n1ncc2cc(Cl)cc(C(=O)NC3CC4(C3)CC(C(=O)O)C4)c21 (racemic) [Example 173, (Sa)-6-(1-((racemic)1-([1,1′-Biphenyl]-4-yl)ethyl)-5-chloro-1H-indazole-7-carboxamido)spiro[3.3]heptane-2-carboxylic acid]
16 | < 1 | < 25 | COc1cc(C#N)cc(-c2ccc(C(C)n3ncc4cccc(C(=O)NC5CC6(C5)CC(C(=O)O)C6)c43)cc2)c1 (single isomer, unassigned) [Example 126, (Sa)-6-(1-((R) or (S)-1-(3′-cyano-5′-methoxy-[1,1′-biphenyl]-4-yl)-ethyl)-1H-indazole-7-carboxamido)spiro[3.3]heptane-2-carboxylic acid]
17 | 1.2 | < 25 | CC(c1ccc(-c2ccccc2)cc1)n1ccc2c(F)ccc(C(=O)NC3CC4(C3)CC(C(=O)O)C4)c21 (single isomer, unassigned) [Example 127, (Sa)-6-(1-((R) or (S)-1-([1,1′-biphenyl]-4-yl)-ethyl)-4-fluoro-1H-indole-7-carboxamido)spiro[3.3]heptane-2-carboxylic acid]
18 | 1.9 | < 25 | COc1cccc(-c2ccc(C(C)n3ccc4c(F)ccc(C(=O)NC5CC6(C5)CC(C(=O)O)C6)c43)cc2)c1 (single isomer, unassigned) [Example 128, (Sa)-6-(4-fluoro-1-((R) or (S)-1-(3′-methoxy-[1,1′-biphenyl]-4-yl)-ethyl)-1H-indole-7-carboxamido)spiro[3.3]heptane-2-carboxylic acid]
19 | 3 | 61 | CCOc1cc(-c2ccc(C(C)n3ccc4c(F)ccc(C(=O)NC5CC6(C5)CC(C(=O)O)C6)c43)cc2)ccn1 (single isomer, unassigned) [Example 129, (Sa)-6-(1-((R) or (S)-1-(4-(2-ethoxypyridin-4-yl)phenyl)-ethyl)-4-fluoro-1H-indole-7-carboxamido)spiro[3.3]heptane-2-carboxylic acid]
20 | < 1 | < 25 | CCOc1cc(-c2ccc(C(C)n3ncc4c(Cl)ccc(C(=O)NC5CC6(C5)CC(C(=O)O)C6)c43)cc2)ccn1 (single isomer, unassigned) [Example 131, (Sa)-6-(4-chloro-1-((R) or (S)-1-(4-(2-ethoxypyridin-4-yl)phenyl)-ethyl)-1H-indazole-7-carboxamido)spiro[3.3]heptane-2-carboxylic acid]
21 | 2.2 | < 25 | CC(c1ccc(N2C[C@H]3C[C@H]3C2)cc1)n1ncc2c(Cl)ccc(C(=O)NC3CC4(C3)CC(C(=O)O)C4)c21 (single isomer, unassigned) [Example 132, (Sa)-6-(1-((R) or (S)-1-(4-((1R, 5S)-3-azabicyclo[3.1.0]hexan-3-yl)phenyl)ethyl)-4-chloro-1H-indazole-7-carboxamido)spiro[3.3]heptane-2-carboxylic acid]
22 | < 1 | 78 | CN(C)c1cc(-c2ccc(Cn3ccc4c(F)ccc(C(=O)NC5CC6(C5)CC(C(=O)O)C6)c43)cc2)ccn1 (stereo not drawn) [Example 22, 6-(1-(4-(2-(dimethylamino)pyridin-4-yl)benzyl)-4-fluoro-1H-indole-7-carboxamido)spiro[3.3]heptane-2-carboxylic acid]
23 | < 1 | 70 | O=C(NC1CC2(C1)CC(C(=O)O)C2)c1ccc(F)c2ccn(Cc3ccc4cc(F)ccc4c3)c12 (stereo not drawn) [Example 37, (Sa)-6-(4-fluoro-1-((6-fluoronaphthalen-2-yl)methyl)-1H-indole-7-carboxamido)spiro[3.3]heptane-2-carboxylic acid]
24 | 6.6 |  | O=C(NC1CC2(C1)CC(C(=O)O)C2)c1ccc(Cl)c2ccn(Cc3ccc(-c4ccncc4)cc3)c12 (stereo not drawn) [Example 67, (Sa)-6-(4-Chloro-1-(4-(pyridin-4-yl)benzyl)-1H-indole-7-carboxamido)spiro[3.3]heptane-2-carboxylic acid]
25 | < 1 |  | N#Cc1ccc(-c2ccc(Cn3ncc4c(Cl)ccc(C(=O)NC5CC6(CC(CC(=O)O)C6)C5)c43)cc2)cc1 (stereo not drawn) [Example 145, (Ra)-2-(6-(4-Chloro-1-((4′-cyano-[1,1′-biphenyl]-4-yl)methyl)-1H-indazole-7-carboxamido)spiro[3.3]heptan-2-yl)acetic acid]
